Source: PubChem BioAssay AID2060886 (Molecular Pharmacology Branch, DTP, NCI, 2025)

Test system: 653999-131-R-J2-PDC complex spheroids, growth inhibition
Assay: Anticancer human tumor 653999-131-R-J2-PDC patient-derived lung adenocarcinoma cell line growth inhibition [RAS]
Details: for IC50: curve of first compound; for viability, T/C: stronger effect = lower value
Procedure, shortened: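 Multi-cell-type spheroids: tumor cells plus HUVEC endothelial cells and mesenchymal stem cells. RAS-pathway inhibitors were combined with targeted agents, each dosed in half-log steps down from clinical Cmax, or from 10 microM when Cmax was unknown.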
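Note: spheroids exposed to the agents for seven days before the readout.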

C=CC(=O)Nc1cc(Nc2nccc(-c3cn(C)c4ccccc34)n2)c(OC)cc1N(C)CCN(C)C + CCn1c(-c2cc(N3CCN(C)CC3)cnc2C(C)OC)c2c3cc(ccc31)-c1csc(n1)CC(NC(=O)C1CC1C)C(=O)N1CCCC(N1)C(=O)OCC(C)(C)C2
IC50 (second compound 0.000949 µM): 816 nM
IC50 (second compound 0.003 µM): 106 nM
IC50 (second compound 0.00949 µM): < 3.16 nM
IC50 (second compound 0.03 µM): < 3.16 nM
IC50 (second compound 0.0949 µM): < 3.16 nM
IC50 (second compound 0.3 µM): < 3.16 nM
viability, T/C (second compound 0.000949 µM, first compound 0.00316 µM): 88.7%
viability, T/C (second compound 0.000949 µM, first compound 0.01 µM): 75.9%
viability, T/C (second compound 0.000949 µM, first compound 0.0316 µM): 56.2%
viability, T/C (second compound 0.000949 µM, first compound 0.1 µM): 76%
viability, T/C (second compound 0.000949 µM, first compound 0.316 µM): 56.7%
viability, T/C (second compound 0.000949 µM, first compound 1 µM): 44.5%
viability, T/C (second compound 0.003 µM, first compound 0.00316 µM): 80.6%
viability, T/C (second compound 0.003 µM, first compound 0.01 µM): 63.7%
viability, T/C (second compound 0.003 µM, first compound 0.0316 µM): 59%
viability, T/C (second compound 0.003 µM, first compound 0.1 µM): 52.9%
viability, T/C (second compound 0.003 µM, first compound 0.316 µM): 43.1%
viability, T/C (second compound 0.003 µM, first compound 1 µM): 37.2%
viability, T/C (second compound 0.00949 µM, first compound 0.00316 µM): 47.3%
viability, T/C (second compound 0.00949 µM, first compound 0.01 µM): 39.5%
viability, T/C (second compound 0.00949 µM, first compound 0.0316 µM): 36.7%
viability, T/C (second compound 0.00949 µM, first compound 0.1 µM): 38%
viability, T/C (second compound 0.00949 µM, first compound 0.316 µM): 31.6%
viability, T/C (second compound 0.00949 µM, first compound 1 µM): 23.2%
viability, T/C (second compound 0.03 µM, first compound 0.00316 µM): 36.4%
viability, T/C (second compound 0.03 µM, first compound 0.01 µM): 29.9%
viability, T/C (second compound 0.03 µM, first compound 0.0316 µM): 28%
viability, T/C (second compound 0.03 µM, first compound 0.1 µM): 37.2%
viability, T/C (second compound 0.03 µM, first compound 0.316 µM): 28.8%
viability, T/C (second compound 0.03 µM, first compound 1 µM): 16.2%
viability, T/C (second compound 0.0949 µM, first compound 0.00316 µM): 25.3%
viability, T/C (second compound 0.0949 µM, first compound 0.01 µM): 25.1%
viability, T/C (second compound 0.0949 µM, first compound 0.0316 µM): 20.9%
viability, T/C (second compound 0.0949 µM, first compound 0.1 µM): 16.8%
viability, T/C (second compound 0.0949 µM, first compound 0.316 µM): 18.6%
viability, T/C (second compound 0.0949 µM, first compound 1 µM): 12.7%
viability, T/C (second compound 0.3 µM, first compound 0.00316 µM): 18.2%
viability, T/C (second compound 0.3 µM, first compound 0.01 µM): 26.2%
viability, T/C (second compound 0.3 µM, first compound 0.0316 µM): 22.1%
viability, T/C (second compound 0.3 µM, first compound 0.1 µM): 22.1%
viability, T/C (second compound 0.3 µM, first compound 0.316 µM): 16.6%
viability, T/C (second compound 0.3 µM, first compound 1 µM): 11.2%

CC1(C)CCC(Nc2ncc(C(F)(F)F)c(-c3c[nH]c4c(P(C)(C)=O)c(C#N)ccc34)n2)CN1 (centres undefined) + C#Cc1c(F)ccc2cc(O)cc(-c3ncc4c(N5CC6CCC(C5)N6)nc(OCC56CCCN5CC(F)C6)nc4c3F)c12
IC50 (second compound 0.0316 µM): > 300 nM
IC50 (second compound 0.1 µM): > 300 nM
IC50 (second compound 0.316 µM): 2.7 nM
IC50 (second compound 1 µM): < 0.949 nM
IC50 (second compound 3.16 µM): < 0.949 nM
IC50 (second compound 10 µM): < 0.949 nM
viability, T/C (second compound 0.0316 µM, first compound 0.000949 µM): 84.7%
viability, T/C (second compound 0.0316 µM, first compound 0.003 µM): 66.3%
viability, T/C (second compound 0.0316 µM, first compound 0.00949 µM): 62.9%
viability, T/C (second compound 0.0316 µM, first compound 0.03 µM): 61.5%
viability, T/C (second compound 0.0316 µM, first compound 0.0949 µM): 55.3%
viability, T/C (second compound 0.0316 µM, first compound 0.3 µM): 55.6%
viability, T/C (second compound 0.1 µM, first compound 0.000949 µM): 69.9%
viability, T/C (second compound 0.1 µM, first compound 0.003 µM): 64.2%
viability, T/C (second compound 0.1 µM, first compound 0.00949 µM): 59%
viability, T/C (second compound 0.1 µM, first compound 0.03 µM): 56.4%
viability, T/C (second compound 0.1 µM, first compound 0.0949 µM): 72.7%
viability, T/C (second compound 0.1 µM, first compound 0.3 µM): 55.6%
viability, T/C (second compound 0.316 µM, first compound 0.000949 µM): 59.6%
viability, T/C (second compound 0.316 µM, first compound 0.003 µM): 48.3%
viability, T/C (second compound 0.316 µM, first compound 0.00949 µM): 46.9%
viability, T/C (second compound 0.316 µM, first compound 0.03 µM): 47.3%
viability, T/C (second compound 0.316 µM, first compound 0.0949 µM): 44.4%
viability, T/C (second compound 0.316 µM, first compound 0.3 µM): 43.5%
viability, T/C (second compound 1 µM, first compound 0.000949 µM): 37.5%
viability, T/C (second compound 1 µM, first compound 0.003 µM): 36.3%
viability, T/C (second compound 1 µM, first compound 0.00949 µM): 37.1%
viability, T/C (second compound 1 µM, first compound 0.03 µM): 38.1%
viability, T/C (second compound 1 µM, first compound 0.0949 µM): 37.7%
viability, T/C (second compound 1 µM, first compound 0.3 µM): 39.3%
viability, T/C (second compound 3.16 µM, first compound 0.000949 µM): 33.8%
viability, T/C (second compound 3.16 µM, first compound 0.003 µM): 26.8%
viability, T/C (second compound 3.16 µM, first compound 0.00949 µM): 21.6%
viability, T/C (second compound 3.16 µM, first compound 0.03 µM): 22.1%
viability, T/C (second compound 3.16 µM, first compound 0.0949 µM): 27.1%
viability, T/C (second compound 3.16 µM, first compound 0.3 µM): 27.4%
viability, T/C (second compound 10 µM, first compound 0.000949 µM): 26.4%
viability, T/C (second compound 10 µM, first compound 0.003 µM): 20.2%
viability, T/C (second compound 10 µM, first compound 0.00949 µM): 16.7%
viability, T/C (second compound 10 µM, first compound 0.03 µM): 14.1%
viability, T/C (second compound 10 µM, first compound 0.0949 µM): 16.9%
viability, T/C (second compound 10 µM, first compound 0.3 µM): 17.4%
